Assay results from PubChem BioAssay (NCI).
“And” between values parts separate entries of the source, which are not always exact repeats. Identical values can stand only once.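 Where inhibition never reached the appropriate level, the endpoint shown equals the highest concentration tested. Otherwise, values were interpolated linearly from a five-concentration, 48-hour dose response in 96-well plates. GI50 = concentration required for 50% inhibition of growth. TGI marks complete inhibition of growth.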

Experiments:
Assay in all cases: DTP human tumour cell line panel, 48 h
CCRF-CEM leukemia = tested on: CCRF-CEM leukemia
COLO 205 colon = tested on: COLO 205 colon
NCI/ADR-RES ovarian = tested on: NCI/ADR-RES ovarian
OVCAR-4 ovarian = tested on: OVCAR-4 ovarian
SF-539 CNS = tested on: SF-539 CNS
SK-MEL-28 melanoma = tested on: SK-MEL-28 melanoma
SK-OV-3 ovarian = tested on: SK-OV-3 ovarian
U251 CNS = tested on: U251 CNS
UACC-257 melanoma = tested on: UACC-257 melanoma
UACC-62 melanoma = tested on: UACC-62 melanoma

SMILES | GI50 (CCRF-CEM leukemia) | TGI (CCRF-CEM leukemia) | TGI (COLO 205 colon) | GI50 (NCI/ADR-RES ovarian) | TGI (NCI/ADR-RES ovarian) | TGI (OVCAR-4 ovarian) | GI50 (SF-539 CNS) | TGI (SF-539 CNS) | GI50 (SK-MEL-28 melanoma) | TGI (SK-MEL-28 melanoma) | GI50 (SK-OV-3 ovarian) | TGI (SK-OV-3 ovarian) | GI50 (U251 CNS) | TGI (U251 CNS) | TGI (UACC-257 melanoma) | TGI (UACC-62 melanoma) | GI50 (COLO 205 colon) | GI50 (OVCAR-4 ovarian) | GI50 (UACC-257 melanoma) | GI50 (UACC-62 melanoma)
CCN(CC)CCCC(C)Nc1c2ccc(Cl)cc2nc2ccc(OC)cc12 (stereo unspecified) | 1.48 µM | 7.62 µM and 5.45 µM | 3.11 µM and 7.34 µM | 2.26 µM | 9.69 µM and 7.81 µM | 5.05 µM and 3.74 µM | 1.86 µM | 3.39 µM and 3.3 µM | 2.27 µM | 4.4 µM and 3.1 µM | 2.69 µM | 10.3 µM and 12.6 µM | 1.89 µM | 4.1 µM and 3.39 µM | 3.43 µM and 3.38 µM | 3.29 µM and 3.4 µM |  |  |  | 
NOCC(=O)O | 94 µM | > 100 µM | > 100 µM | > 100 µM | > 100 µM | > 100 µM | > 100 µM | > 100 µM | > 100 µM | > 100 µM | > 100 µM | > 100 µM | > 100 µM | > 100 µM | > 100 µM | > 100 µM | > 100 µM | > 100 µM | > 100 µM | 34.4 µM
CC(=O)CC(=O)Nc1ccc2ccccc2c1 |  | > 100 µM | > 100 µM |  | > 100 µM | > 100 µM |  | > 100 µM |  | > 100 µM |  | > 100 µM |  | > 100 µM | > 100 µM | > 100 µM |  |  |  | 
COc1cc(OC)cc(C2CC(=O)Nc3c2c(C)nn3-c2nc3ccccc3[nH]2)c1 (stereo unspecified) | 0.792 µM | > 100 µM | 6.55 µM | 4.47 µM | > 100 µM | > 100 µM | 2.96 µM | 9.43 µM | 3.64 µM | 70 µM | 2.41 µM | 5.49 µM | 2.99 µM | 9.57 µM | 7.32 µM | 4.01 µM | 2.7 µM | 4.64 µM | 2.64 µM | 1.94 µM
CC(=O)[O-].CC(=O)[O-].[Pt+2].c1cscn1.c1cscn1 | 54 µM | > 100 µM | > 100 µM | > 100 µM | > 100 µM | > 100 µM | 48.3 µM | > 100 µM | > 100 µM | > 100 µM | > 100 µM | > 100 µM | 54.5 µM | > 100 µM | 85.3 µM | > 100 µM | > 100 µM | 74.3 µM | 31.9 µM | > 100 µM
CCC1(CC)C(=O)OC(=O)C1(CC)CC |  | > 100 µM | > 100 µM |  | > 100 µM | > 100 µM |  | > 100 µM |  | > 100 µM |  | > 100 µM |  | > 100 µM |  | > 100 µM |  |  |  | 
C=C1C(=O)O[C@H]2[C@H]1CC/C(CNC(=O)c1cc3cc(OC)ccc3[nH]1)=C\CC[C@@]1(C)O[C@@H]21 | 1.97 µM | 5.93 µM | 3.04 µM | 6.07 µM | 23.7 µM | 7.57 µM | 1.42 µM | 3 µM | 1.62 µM | 4.23 µM | 11.2 µM | 23.5 µM | 3.35 µM | 12.6 µM |  | 3.61 µM | 1.21 µM | 2 µM |  | 1.52 µM
ClCc1cccc(Cn2cnc3c(NC45CC6CC(CC(C6)C4)C5)ncnc32)c1 | 16 µM | > 69.1 µM | > 69.4 µM | 16.2 µM | 41.9 µM | 38.8 µM | 16.9 µM | 32.4 µM | 25 µM | > 78.7 µM | 21.1 µM | 42.3 µM | 14.8 µM | 30.8 µM | 37.4 µM | 36.5 µM | 20.5 µM | 15.5 µM | 16 µM | 16.3 µM
O=c1c2c(nc3n1CCS3)[nH]c1ccccc12 | > 100 µM | > 100 µM | > 100 µM | > 100 µM | > 100 µM | > 100 µM | > 100 µM | > 100 µM | 90.3 µM | > 100 µM | > 100 µM | > 100 µM | > 100 µM | > 100 µM | > 100 µM | > 100 µM | > 100 µM | > 100 µM | > 100 µM | 62.4 µM
CC(C)c1ccc(C(=O)Nc2nc3ccc(O)cc3s2)cc1 | 0.318 µM | > 100 µM | > 100 µM | 0.948 µM | > 100 µM | 80.2 µM | 1.22 µM | 11.6 µM | 0.628 µM | > 100 µM |  |  | 9.32 µM | > 100 µM | > 100 µM | > 100 µM | 3.58 µM | 0.873 µM | 1.51 µM | 0.124 µM
